Results: PubChem BioAssay (NCI)
“And” between values parts separate entries of the source, which are not always exact repeats. Equal values may be shown once.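 Results reflect a 48-hour exposure of cells in 96-well plates to compound at five concentrations. At the GI50, growth is halved. At the TGI there is no net growth.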

Experiments:
Assay in all cases: NCI anticancer screen, dose series, 48 h
CAKI-1 renal = system: CAKI-1 renal
DU-145 prostate = system: DU-145 prostate
HCT-15 colon = system: HCT-15 colon
MDA-MB-231 breast = system: MDA-MB-231 breast
PC-3 prostate = system: PC-3 prostate
SK-MEL-2 melanoma = system: SK-MEL-2 melanoma
SN12C renal = system: SN12C renal
SW-620 colon = system: SW-620 colon
TK-10 renal = system: TK-10 renal
UO-31 renal = system: UO-31 renal

Compound | GI50 (CAKI-1 renal) | TGI (CAKI-1 renal) | GI50 (DU-145 prostate) [µM] | TGI (DU-145 prostate) | GI50 (HCT-15 colon) [µM] | TGI (HCT-15 colon) | GI50 (MDA-MB-231 breast) | TGI (MDA-MB-231 breast) | GI50 (PC-3 prostate) | TGI (PC-3 prostate) | GI50 (SK-MEL-2 melanoma) [µM] | TGI (SK-MEL-2 melanoma) | GI50 (SN12C renal) [µM] | TGI (SN12C renal) | GI50 (SW-620 colon) | TGI (SW-620 colon) [µM] | GI50 (TK-10 renal) [µM] | TGI (TK-10 renal) | GI50 (UO-31 renal) | TGI (UO-31 renal)
CSc1ccc(C2=NN(C(=O)c3ccc(F)cc3)C(c3ccc(F)cc3)C2)cc1 (stereo not drawn) | 16.6 µM | 37.5 µM | 14.6 | 29.3 µM | 5.39 | 20.5 µM | 14 µM | 32.3 µM | 6.43 µM | 22.2 µM | 18.8 | 34.6 µM | 7.21 | 19.2 µM | 14.2 µM | 34.2 | 10.4 | 22.8 µM | 12.6 µM | 25.1 µM
COc1cc(/C=C/C(=O)CC(=O)/C=C/c2cc(OC)c(OC)c(OC)c2)cc(OC)c1OC | 3.27 µM | 16.5 µM | 6.71 | 31.9 µM | 3.32 | 12.7 µM | 3.13 µM | 9.12 µM | 3.02 µM | > 100 µM | 5.87 | 78.8 µM | 3.59 | 37 µM | 2.56 µM | 11.3 | 4.08 | 19.2 µM | 3 µM | 13.1 µM
O=Cc1ccc(-c2cc(C=O)c(-c3cccs3)[nH]2)s1 | 53.5 µM | 58.3 µM and > 100 µM | – | 75 µM and > 100 µM | 74.8 | 75 µM and > 100 µM | > 100 µM | 75 µM and > 100 µM | > 100 µM | 75 µM and > 100 µM | > 100 | 75 µM and > 100 µM | – | 75 µM and > 100 µM | > 100 µM | > 100 | 85 | 75 µM and > 100 µM | 34 µM | 75 µM and > 100 µM
C=CCC(N[C@H](CO)c1ccccc1)c1ccc2ccccc2n1 (stereo partly drawn) | > 100 µM | > 100 µM | > 100 | > 100 µM | > 100 | > 100 µM | > 100 µM | > 100 µM | > 100 µM | > 100 µM | > 100 | > 100 µM | > 100 | > 100 µM | > 100 µM | > 100 | > 100 | > 100 µM | > 100 µM | > 100 µM
CN[C@@H](C)C(=O)N[C@H](C(=O)N1CCC[C@H]1C(=O)N[C@H]1c2ccccc2C[C@H]1OCC#CC#CCO[C@@H]1Cc2ccccc2[C@@H]1NC(=O)[C@@H]1CCCN1C(=O)[C@@H](NC(=O)[C@H](C)NC)C1CCCCC1)C1CCCCC1 | > 68.2 µM | > 100 µM | 5.35 | 16.5 µM | 17.5 | 40 µM | < 0.01 µM | – | 6.04 µM | 18.7 µM | 1.18 | 3.02 µM | 7.95 | 21.6 µM | 3.6 µM | 11.5 | 19.7 | 35.6 µM | > 44.2 µM | > 59.3 µM
Cc1ccccc1NC(=O)N/C(N)=N/c1nc(-c2cccc([N+](=O)[O-])c2)cs1 | 1.16 µM | 3.16 µM | 3.35 | 65.1 µM | 1.56 | 34.6 µM | 1.6 µM | 4.03 µM | 2.66 µM | > 100 µM | 3.21 | 17.3 µM | 3.37 | 30.5 µM | 2.3 µM | > 100 | 5.33 | 14.6 µM | 1.29 µM | 3.83 µM
O=C(/C=C/c1ccc(F)cc1)c1ccc(Cl)cc1Cl | 33 µM | 89.6 µM | 53.4 | > 100 µM | 43.8 | > 100 µM | > 100 µM | > 100 µM | 31.3 µM | 96.8 µM | > 100 | > 100 µM | 61.8 | > 100 µM | 29.7 µM | 79.2 | 86.8 | > 100 µM | 91.8 µM | > 100 µM
Cc1cc(I)cc(CN(C)CCCN2CCSCC2)c1O | 20 µM | 40.7 µM | 41 | > 100 µM | 17.8 | 37.2 µM | 27.8 µM | 92.3 µM | 29.8 µM | > 100 µM | 19.2 | 39.9 µM | 76.6 | > 100 µM | 19.4 µM | 38.9 | 33.3 | 89.3 µM | 26.4 µM | > 100 µM
CC12OC(c3ccccc3)=CC(c3ccc(Cl)cc3)=C1C(c1ccccc1)=CC2=O (stereo not drawn) | > 100 µM | > 100 µM | > 100 | > 100 µM | 26.3 | > 100 µM | 67.2 µM | > 100 µM | 34.4 µM | > 100 µM | > 100 | > 100 µM | > 100 | > 100 µM | 90.4 µM | > 100 | > 100 | > 100 µM | > 100 µM | > 100 µM
Cn1ccnc1CC(C)(O)c1ccccc1 (stereo not drawn) | – | > 100 µM | – | > 100 µM | – | > 100 µM | – | > 100 µM | – | > 100 µM | – | > 100 µM | – | > 100 µM | – | > 100 | – | > 100 µM | – | > 100 µM
CCOC(=O)Nc1nc2ccc(Cn3cccc3)cc2[nH]1 | – | > 100 µM | – | > 52.5 µM | – | > 100 µM | – | > 27.2 µM | – | > 38.2 µM | – | > 100 µM | – | > 100 µM | – | > 100 | – | > 100 µM | – | > 100 µM
COC(=O)CCc1cc(OC)c2c(c1)C(C(=O)OC)C(c1ccc(OC)c(OC)c1)O2 (stereo not drawn) | > 100 µM and 45.5 µM | > 100 µM | > 100 | > 100 µM | – | > 100 µM | > 100 µM and 21.4 µM | > 100 µM | > 100 µM and 28.8 µM | > 100 µM | – | > 100 µM | – | > 100 µM | > 100 µM and 17.3 µM | > 100 | – | > 100 µM | 84.9 µM and 36.8 µM | > 100 µM
O=C(O[C@H]1CN[C@H](C#Cc2cc3ncnc(Nc4ccc5c(ccn5Cc5cc(F)ccc5F)c4)c3s2)C1)N1CCOCC1 | 0.187 µM | > 21.7 µM | 2.17 | 5.52 µM | 3.55 | 17.5 µM | 1.97 µM | 9.81 µM | 5.52 µM | > 23.7 µM | 5.35 | 12.7 µM | 2.57 | 12.8 µM | 5.16 µM | 15.1 | 0.0724 | 1.93 µM | 0.339 µM | 7.05 µM
